Data published in patent US7700717B2, “Photo-active backbone cyclized somatostatin analogs for photodynamic therapy and imaging” (DeveloGen Israel Ltd., priority 2002, dated 2010).

Tests used:
[1] = system: subcutaneously implanted H69 human lung cancer; assay: Ex vivo biodistribution by fiber-optic spectrofluorimetry (FOS) in tissues of mice bearing H69 tumors; settings: for Fluorescence intensity (a.u.), Kidney / Fluorescence intensity (a.u.), Liver / Fluorescence intensity (a.u.), Lung / Fluorescence intensity (a.u.), Pancreas / Fluorescence intensity (a.u.), Skin / Fluorescence intensity (a.u.), Spleen / Fluorescence intensity (a.u.), Tumor: ex vivo, 24 hours after i.v. administration, FOS
Text: An argon ion laser (Melles Griot, 43 series) was coupled to a spectrofluorophotometer (Shimadzu, model RF-5301PC) using a bifurcated fiber bundle (Oriel, Stratford, Conn., model 77533). Laser light (488 nm) was passed via one leg of the fiber bundle, the common end tip of the bundle was fixed at a distance of 1 mm from a tissue sample, while the end tip of the second leg was mounted in front of the entrance slit of the spectrofluorophotometer. Laser irradiation from the fiber was set to 5 mW, as measured with a laser power meter (Laserstar, Ophir, Israel). An average of three recordings was used for each data point.
For control, one mouse was injected with fluorescein.
Fluorescence measurements were performed: • 1. […] Ex vivo 24 hours post injection using FOS. • 3.

[2] = system: SST-R2 and SST-R5; settings: cited from earlier work
[3] = molecular target: hSST-R4 (Homo sapiens, UniProt P31391); settings: cited from earlier work
[4] = molecular target: T1, hSST-R2 (Homo sapiens, UniProt P30874); assay: Inhibition of 125I-Tyr11-SRIF (SRIF-14) binding to membranes of CHO cells expressing cloned human SST-R2; settings: Table 2; affinity for hSST-R2, cloned human receptor in CHO cells
T1 construct: expressed in transfected cells
Description: The SST analogs were tested for their potency in inhibition of the binding of ^125I-Tyr^11-SRIF (based on the method described by Raynor et. al., Molecular Pharmacology 43: 838, 1993) to membrane preparations expressing transmembrane SST receptors (SST-R1, 2, 3, 4 or 5). The receptor preparations used for these tests were either from the cloned human receptors selectively and stably expressed in Chinese Hamster Ovary (CHO) cells or from cell lines naturally expressing the SST-Rs. Typically, cell membranes were homogenized in Tris buffer in the presence of protease inhibitors and incubated for 30-40 minutes with ^125I-Tyr^11-SRIF with different concentrations of the tested sample. The binding reactions were filtered, the filters were washed and the bound radioactivity was counted in […] after addition of scintillation solution. Non specific binding was defined as the radioactivity remaining bound in the presence of 1 μM unlabeled SRIF-14.
The receptor membrane preparations used for these tests were from the cloned human receptors selectively and stably expressed in CHO cells and the radiolabelled analog used was (3-[^125]tyrosyl^11)SRIF-14. Table 2 above describes the results of the binding assays of selected analogs to the human cloned SST-R2.
The compounds were tested at a concentration of 10 nM, for SRIF-14 displacement on hSST-R2 expressed cells.

[5] = system: subcutaneously implanted H69 human lung cancer; settings: mouse, iv
Description: Balb/c nude mice xenografts inoculated subcutaneously with the human small cell lung cancer cell line, H69.
Hundred μl of each agent (1 mM stock) were dissolved in 0.5 ml of saline and injected intravenously. For control, one mouse was injected with fluorescein.
In vivo during 24 hours after agent administrations using point (˜1 mm^2 area) measurements by fiber-optic spectroscopic system (FOS). • 2. Ex vivo 24 hours post injection using FOS. • 3.

hSST-R4, sequence (P31391 whole entry): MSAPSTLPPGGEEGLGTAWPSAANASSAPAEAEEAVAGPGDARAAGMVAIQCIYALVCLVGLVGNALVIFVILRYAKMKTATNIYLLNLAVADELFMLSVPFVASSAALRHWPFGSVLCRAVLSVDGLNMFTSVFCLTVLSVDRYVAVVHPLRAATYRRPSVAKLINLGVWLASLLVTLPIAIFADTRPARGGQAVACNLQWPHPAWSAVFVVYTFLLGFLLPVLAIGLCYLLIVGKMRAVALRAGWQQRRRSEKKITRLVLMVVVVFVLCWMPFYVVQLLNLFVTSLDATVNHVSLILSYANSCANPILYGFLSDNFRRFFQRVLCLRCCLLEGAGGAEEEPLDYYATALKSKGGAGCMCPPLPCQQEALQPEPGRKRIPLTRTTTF
T1 sequence (P30874 whole entry): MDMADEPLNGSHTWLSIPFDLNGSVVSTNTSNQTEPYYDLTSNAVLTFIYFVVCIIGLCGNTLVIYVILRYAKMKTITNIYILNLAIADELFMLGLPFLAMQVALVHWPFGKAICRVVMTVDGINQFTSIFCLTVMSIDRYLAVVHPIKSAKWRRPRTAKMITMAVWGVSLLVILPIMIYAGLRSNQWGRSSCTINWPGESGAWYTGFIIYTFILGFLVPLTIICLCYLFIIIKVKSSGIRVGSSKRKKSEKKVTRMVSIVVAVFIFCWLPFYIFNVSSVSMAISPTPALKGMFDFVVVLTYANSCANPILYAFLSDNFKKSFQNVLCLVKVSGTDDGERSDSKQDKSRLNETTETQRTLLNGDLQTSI

Compound	Fluorescence intensity (a.u.), Kidney [1]	Fluorescence intensity (a.u.), Liver [1]	Fluorescence intensity (a.u.), Lung [1]	Fluorescence intensity (a.u.), Pancreas [1]	Fluorescence intensity (a.u.), Skin [1]	Fluorescence intensity (a.u.), Spleen [1]	Fluorescence intensity (a.u.), Tumor [1]	IC50 [4]	tumor fluorescence in ex vivo spectral images [5]	SST receptor subtype selectivity [2]	affinity to hSST-R4 [3]	tissue accumulation / specificity to the tumor in words ([1]; mouse, in vivo)	fluorescence in normal organs in ex vivo spectral images [5]
GABA*-Phe-Trp-DTrp-Lys-Thr-Phe-GlyC3*-NH2 (XFWWKTFG; not fully specified; backbone cyclized; GABA; C-terminal amide) [PTR 3173]										selective for SST-R2 and SST-R5	moderate affinity		
C[C@@H](O)[C@@H]1NC(=O)[C@H](CCCCN)NC(=O)[C@@H](Cc2c[nH]c3ccccc23)NC(=O)[C@H](Cc2c[nH]c3ccccc23)NC(=O)[C@H](Cc2ccccc2)NC(=O)CN(C(=O)CCCNC(=O)c2ccc3c(c2)C(=O)OC32c3ccc(O)cc3Oc3cc(O)ccc32)CCSSCCN(CC(N)=O)C(=O)[C@H](Cc2ccccc2)NC1=O [Compound 48, 5- and 6-carboxyfluorescein-GABA-GlyS2*-Phe-Trp-DTrp-Lys-Thr-Phe-GlyS2*-NH2]	15 ± 6 a.u.	10 ± 5 a.u.	25 ± 8 a.u.	16 ± 5 a.u.	90 ± 20 a.u.	7 ± 2 a.u.	50 ± 20 a.u.						
C[C@@H](O)[C@@H]1NC(=O)[C@H](CCCCN)NC(=O)[C@@H](Cc2c[nH]c3ccccc23)NC(=O)[C@H](Cc2c[nH]c3ccccc23)NC(=O)[C@H](Cc2ccccc2)NC(=O)[C@@H](NC(=O)[C@@H](Cc2ccccc2)NC(=O)CCCNC(=S)Nc2ccc3c(c2)C(=O)OC32c3ccc(O)cc3Oc3cc(O)ccc32)CSSCCN(CC(N)=O)C(=O)[C@H](Cc2ccccc2)NC1=O [Compound 86, 5-(aminothionyl)fluorescein-GABA-DPhe-Cys*-Phe-Trp-DTrp-Lys-Thr-Phe-GlyS2*-NH2]	23 ± 5 a.u.	13 ± 3 a.u.	70 ± 14 a.u.	22 ± 6 a.u.	65 ± 13 a.u.	7 ± 1.4 a.u.	626 ± 55 a.u.	1.7 nM	high and selective tumor fluorescence			particularly high specificity to the tumor	no fluorescence in normal organs

Continued, in another order:

Fluorescence intensity (a.u.), Kidney [1]	Fluorescence intensity (a.u.), Liver [1]	Fluorescence intensity (a.u.), Lung [1]	Fluorescence intensity (a.u.), Pancreas [1]	Fluorescence intensity (a.u.), Skin [1]	Fluorescence intensity (a.u.), Spleen [1]	Fluorescence intensity (a.u.), Tumor [1]	IC50 [4]	tumor fluorescence in ex vivo spectral images [5]	Compound	SST receptor subtype selectivity [2]	affinity to hSST-R4 [3]	tissue accumulation / specificity to the tumor in words ([1]; mouse, in vivo)	fluorescence in normal organs in ex vivo spectral images [5]
18 ± 3 a.u.	5 ± 1 a.u.	27 ± 4 a.u.	10 ± 2 a.u.	116 ± 17 a.u.	2 ± 0.3 a.u.	122 ± 18 a.u.			C[C@@H](O)[C@@H]1NC(=O)[C@H](CCCCN)NC(=O)[C@@H](Cc2c[nH]c3ccccc23)NC(=O)[C@H](Cc2c[nH]c3ccccc23)NC(=O)[C@H](Cc2ccccc2)NC(=O)CN(C(=O)[C@@H](Cc2ccccc2)NC(=O)CCCCNC(=S)Nc2ccc3c(c2)C(=O)OC32c3ccc(O)cc3Oc3cc(O)ccc32)CCSSCCN(CC(N)=O)C(=O)[C@H](Cc2ccccc2)NC1=O [Compound 70, 5-(aminothionyl)fluorescein-aminopentanoyl-DPhe-GlyS2*-Phe-Trp-DTrp-Lys-Thr-Phe-GlyS2*-NH2]				
20 ± 3 a.u.	12 ± 2 a.u.	40 ± 6 a.u.		120 ± 18 a.u.	4 ± 1 a.u.	110 ± 17 a.u.			C[C@@H](O)[C@@H]1NC(=O)[C@H](CCCCN)NC(=O)[C@@H](Cc2c[nH]c3ccccc23)NC(=O)[C@H](Cc2c[nH]c3ccccc23)NC(=O)[C@H](Cc2ccccc2)NC(=O)CN(C(=O)[C@@H](Cc2ccccc2)NC(=O)CCNC(=O)c2ccc3c(c2)C(=O)OC32c3ccc(O)cc3Oc3cc(O)ccc32)CCSSCCN(CC(N)=O)C(=O)[C@H](Cc2ccccc2)NC1=O [Compound 64, 5- and 6-carboxyfluorescein-βAla-DPhe-GlyS2*-Phe-Trp-DTrp-Lys-Thr-Phe-GlyS2*-NH2]				
32 ± 5 a.u.	17 ± 3 a.u.	37 ± 6 a.u.		120 ± 18 a.u.	4 ± 1 a.u.	106 ± 16 a.u.		high and selective fluorescence	C[C@@H](O)[C@@H]1NC(=O)[C@H](CCCCN)NC(=O)[C@@H](Cc2c[nH]c3ccccc23)NC(=O)[C@H](Cc2c[nH]c3ccccc23)NC(=O)[C@H](Cc2ccccc2)NC(=O)CN(C(=O)[C@@H](Cc2ccccc2)NC(=O)CCNC(=S)Nc2ccc3c(c2)C(=O)OC32c3ccc(O)cc3Oc3cc(O)ccc32)CCSSCCN(CC(N)=O)C(=O)[C@H](Cc2ccccc2)NC1=O [Compound 62, 5-(aminothionyl)fluorescein-βAla-DPhe-GlyS2*-Phe-Trp-DTrp-Lys-Thr-Phe-GlyS2*-NH2]				no (lungs and kidney) or little (dermis) fluorescence
